Key:
[1] = Phase I trial; cited from earlier work
[2] = tested on: H1975 (L858R/T790M) cells; assay: EGFR signaling immunoblot in H1975 cells; format: cell-based; settings: 16 hours
Protocol: All cell lines were maintained in RPMI 1640 (Cellgro; Mediatech Inc., Herndon, Calif.) supplemented with 10% FBS 100 units/mL penicillin, 100 […], and 2 mM glutamine.
The supernatant was used for subsequent procedures. […] Antibody binding was detected using an enhanced chemiluminescence system (New England Nuclear Life Science Products Inc.).

T790M EGFR = T790M EGFR (Homo sapiens, UniProt P00533, T790M); assay: Mass spectrometric analysis of T790M EGFR modification; settings: MS/MS of peptic peptide 791-798
Source text: (A) Intact ESI mass spectra of the free and inhibitor bound. The raw m/z data are shown on the left and the transformed, mass only spectra shown on the right. The measured and theoretical molecular weights of the unmodified as well as modified version of each protein are indicated. In the transformed mass spectra, peaks corresponding to a phosphorylation are indicated. […] All the ions in these mass spectra have been converted to a single charge state.
For intact protein mass spectral analysis, the proteins T790M alone and with small molecules bound were injected onto a POROS 20 R2 protein trap and desalted with 0.05% trifluoroacetic acid (TFA) at a flow rate of 100 μL/min. The proteins were eluted into the mass spectrometer using a linear 15%-75% (v/v) acetonitrile gradient over 4 min at 50 μL/min using a Shimadzu HPLC system (LC-10ADvp). Intact protein analyses were performed on an LCT-Premier instrument (Waters Corp., Milford, Mass., USA) equipped with a standard electrospray source. The capillary voltage was 3.2 kV and the cone voltage of 35 V. Nitrogen was used as desolvation gas. A source temperature of 175° C. and a desolvation temperature of 80° C. were applied. The instrument was calibrated by infusing a solution of 500 fmol/μL myoglobin and the mass accuracy was less than 10 ppm. […]

lung cancer patients = settings: all lung cancer patients, not selected for EGFR mutation; cited from earlier work

## CCOc1cc2ncc(C#N)c(Nc3ccc(OCc4ccccn4)c(Cl)c3)c2cc1NC(=O)/C=C/CN(C)C [HKI-272]
[1]
  Cmax: ~200 nM

## C=CC(=O)Nc1cccc(Oc2nc(Nc3ccc(N4CCN(C)CC4)cc3)ncc2Cl)c1 [WZ3146, N-(3-(5-chloro-2-(4-(4-methylpiperazin-1-yl)phenylamino)pyrimidin-4-yloxy)phenyl)acrylamide]
[2]
  inhibition of EGFR, Akt and ERK 1/2 phosphorylation: significantly lower concentrations compared with CL-387,785
T790M EGFR
  site of covalent attachment: Cys797 was the site of covalent attachment

## C#Cc1cccc(Nc2ncnc3cc(OCCOC)c(OCCOC)cc23)c1 [erlotinib]
Lung cancer patients
  median time to tumor progression: approximately 2 months

## COc1cc2ncnc(Nc3ccc(F)c(Cl)c3)c2cc1OCCCN1CCOCC1 [gefitinib]
Lung cancer patients
  median time to tumor progression: approximately 2 months

Source: patent publication US9908884B2, “EGFR inhibitors and methods of treating disorders” (priority 2009, dated 2018)
